Legend:
SGC-7901 [1] = test: Antiproliferative activity against human SGC7901 cells after 48 hrs by MTT assay; assay type: functional, cell-based; details: SGC-7901, 48 h
MGC-803 = test: Antiproliferative activity against human MGC803 cells after 48 hrs by MTT assay; assay type: functional, cell-based; details: MGC-803, 48 h
SMMC-7721 = test: Antiproliferative activity against human SMMC7721 cells after 48 hrs by MTT assay; assay type: functional, cell-based; details: SMMC-7721, 48 h
U-87 MG = test: Antiproliferative activity against human U87 cells after 48 hrs by MTT assay; assay type: functional, cell-based, U-87MG ATCC
SGC-7901 [2] = test: Induction of mitochondrial membrane depolarization in human SGC7901 cells assessed as cells with mitochondrial membrane potential loss after 48 hrs by JC-1 staining based flow cytometric analysis (reference value: 9.29%); assay type: functional
SGC-7901 [3] = test: Induction of mitochondrial membrane depolarization in human SGC7901 cells assessed as cells with intact mitochondrial membrane potential after 48 hrs by JC-1 staining based flow cytometric analysis (reference value: 87.3%); assay type: functional

Compound | IC50 (SGC-7901 [1]) [µM] | IC50 (MGC-803) [µM] | IC50 (SMMC-7721) [µM] | IC50 (U-87 MG) [µM] | Activity (SGC-7901 [2]) [%] | Activity (SGC-7901 [3]) [%]
COc1cc(OC)c2c(=O)c(OCCCCOc3ccc(/C=C/C(=O)/C=C/c4scnc4C)cc3)c(-c3cc(OC)c(OC)c(OC)c3)oc2c1 | 42 | 54.6 | 65 | 58.7 | – | –
O=C(/C=C/c1ccc(Cl)cc1)/C=C/c1ccc(Oc2cc(=O)oc3ccccc23)cc1 | 48.3 | 55.2 | – | – | – | –
COc1cc(OC)c2c(=O)c(OCCCOc3ccc(/C=C/C(=O)/C=C/c4scnc4C)cc3)c(-c3cc(OC)c(OC)c(OC)c3)oc2c1 | 49.4 | 31.7 | 34.3 | 40.4 | – | –
COc1ccc(/C=C/C(=O)/C=C/c2ccc(Oc3cc(=O)oc4ccccc34)cc2)cc1OC | 49.4 | 49.4 | – | – | – | –
O=C(/C=C/c1ccc(Oc2cc(=O)oc3ccccc23)cc1)/C=C/c1ccccn1 | 25.2 | 19.4 | 35.4 | 50.8 | – | –
N#CC(C#N)=NNc1cccc(Cl)c1 [CARBONYL CYANIDE M-CHLOROPHENYLHYDRAZONE] | – | – | – | – | 64.6 | 27.7
O=C(/C=C/c1ccc(Oc2cc(=O)oc3ccccc23)cc1)/C=C/c1cccnc1 | 17.4 | 24.5 | 33.4 | 37 | – | –
COc1cc(OC)c2c(=O)c(OCCCCOc3ccccc3/C=C/C(=O)/C=C/c3cccs3)c(-c3cc(OC)c(OC)c(OC)c3)oc2c1 | 26.5 | 20.5 | 14.9 | 21.1 | – | –

More lines, main results first:

IC50 (SGC-7901 [1]) [µM] | IC50 (MGC-803) [µM] | IC50 (SMMC-7721) [µM] | IC50 (U-87 MG) [µM] | Compound | Activity (SGC-7901 [2]) [%] | Activity (SGC-7901 [3]) [%]
4.78 | 5.57 | 7.21 | 9.63 | COc1cc(OC)c2c(=O)c(OCCCOc3ccccc3/C=C/C(=O)/C=C/c3scnc3C)c(-c3cc(OC)c(OC)c(OC)c3)oc2c1 | – | –
5.4 | 5.73 | 9.2 | 7.92 | COc1cc(OC)c2c(=O)c(OCCCOc3ccccc3/C=C/C(=O)/C=C/c3cccc([N+](=O)[O-])c3)c(-c3cc(OC)c(OC)c(OC)c3)oc2c1 | – | –
4.03 | 5.06 | 7.31 | 10 | COc1cc(OC)c2c(=O)c(OCCCCOc3ccccc3/C=C/C(=O)/C=C/c3cccc([N+](=O)[O-])c3)c(-c3cc(OC)c(OC)c(OC)c3)oc2c1 | – | –
0.87 | 0.4 | 0.73 | 0.48 | COc1cccc2c1C(=O)c1c(O)c3c(c(O)c1C2=O)C[C@@](O)(C(=O)CO)C[C@@H]3O[C@H]1C[C@H](N)[C@H](O)[C@H](C)O1 [DOXORUBICIN] | – | –
9.15 | 18.6 | 41.7 | 21.1 | COc1cc(OC)c2c(=O)c(OCCCCOc3ccccc3/C=C/C(=O)/C=C/c3ccc(Cl)cc3)c(-c3cc(OC)c(OC)c(OC)c3)oc2c1 | – | –
2.41 | 1.96 | 1.69 | 4.69 | COc1cc(OC)c2c(=O)c(OCCCCOc3ccc(/C=C/C(=O)/C=C/c4ccccn4)cc3)c(-c3cc(OC)c(OC)c(OC)c3)oc2c1 | – | –
8.98 | 7.9 | 8.48 | 10.7 | COc1cc(OC)c2c(=O)c(OCCCCOc3ccccc3/C=C/C(=O)/C=C/c3ccco3)c(-c3cc(OC)c(OC)c(OC)c3)oc2c1 | – | –

— ChEMBL document CHEMBL4270560, “Novel curcumin analogue hybrids: Synthesis and anticancer activity” (Eur J Med Chem, 2018)
